Patent publication US20030153618A1, “Treatment and prevention of herpes simplex infections” (priority 1999, published 2003)
Where “and” joins values, the source holds several entries; their conditions need not be identical. Equal entries are not always repeated.

Tested on: HSV, Type II
Test: Direct plaque-forming unit (PFU) count in BSC cells in defined media with set lysine (or derivative):arginine ratio
Type: cell-based
Conditions: for Plaque Forming Unit Count, Average: average of experiments 1-6; for P.F.U. Count: average of three tests
Experimental: Absorbed virons were absorbed in susceptible cells in chemically defined media and the number of plaques made were counted. (See Davis, B. D., et al., Microbiology, 2nd Ed., Harper & Row, 1973, Part V, and sources cited therein for procedural details and discussion of the plaque method.)
The cell line chosen was green monkey kidney cells (BSC) that have been passed greater than 41 times. […] The virons were added to a confluent lawn of BSC cells and allowed to absorb at 25° C. for one hour. The unabsorbed virons and the media were removed by washing three times in PBS. […] The control media contained a lysine/arginine ratio of 1:1. The plaques were counted when easily readable. Flasks are done in triplicate.

SMILES	Plaque Forming Unit Count, Average (Lysine:Arginine Ratio 1:1 (control media))	Plaque Forming Unit Count (Lysine:Arginine Ratio 1:1 (control media), single experiment)	Plaque Forming Unit Count, Average (Lysine:Arginine Ratio 500:1)	P.F.U. Count (Compound Ratio to Arginine 10:1)	P.F.U. Count (Compound Ratio to Arginine 100:1)
NCCCC[C@H](N)C(=O)O [Lysine, lysine, reference compound]	738	814 and 594 and 631 and 621 and 936 and 781	12	–	–
CC(N)CCCCC(N)C(=O)O (centres unmarked) [drawing 15]	–	–	–	<5	<5
